Source: ChEMBL document CHEMBL5728675, “5-alkyl pyrrolidine orexin receptor agonists” (2021)

Each compound was assayed against T1, Orexin receptor type 2 (Homo sapiens, UniProt O43614) (assay: Receptor Activity Assay: In a typical experiment, the OX1 and OX2 receptor agonist activity is determined in accordance with the following general experimental method.).
T1 sequence (O43614 whole entry): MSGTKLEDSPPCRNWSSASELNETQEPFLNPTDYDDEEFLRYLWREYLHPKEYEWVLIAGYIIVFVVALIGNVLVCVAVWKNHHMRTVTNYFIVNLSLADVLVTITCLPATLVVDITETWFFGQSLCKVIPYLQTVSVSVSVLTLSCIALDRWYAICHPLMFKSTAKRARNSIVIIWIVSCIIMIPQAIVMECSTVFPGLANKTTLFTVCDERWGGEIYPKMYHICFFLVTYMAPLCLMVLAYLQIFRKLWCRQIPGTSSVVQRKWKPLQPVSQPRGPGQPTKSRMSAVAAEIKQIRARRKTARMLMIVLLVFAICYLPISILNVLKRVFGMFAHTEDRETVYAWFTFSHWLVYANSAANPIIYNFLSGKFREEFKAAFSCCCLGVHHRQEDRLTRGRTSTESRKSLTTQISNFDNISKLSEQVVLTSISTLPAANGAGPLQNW

Point of comparison: `COC(=O)N1[C@H](C)C[C@H](NS(C)(=O)=O)[C@@H]1CO[C@H]1CC[C@@H](c2ccc(F)c(F)c2)CC1`, IC50 25.5 nM. Against it:
- CC(C)OC(=O)N1[C@H](C)C[C@H](NS(=O)(=O)N(C)C)[C@@H]1COC1CCN(c2ncc(F)cn2)CC1 — 22-fold lower, 1.15 nM
- COC(=O)N1C(C2CC2)C[C@H](NS(C)(=O)=O)C1COC1CCC(c2ccccc2)CC1 (stereo partly specified) — 2.9-fold higher, 73.5 nM
- CCc1ccccc1[C@H]1CC[C@H](OC[C@H]2[C@@H](NS(=O)(=O)N(C)C)C[C@@H](C)N2C(=O)OC)CC1 — 4.4-fold higher, 111 nM
- COC[C@@H]1C[C@H](NS(=O)(=O)N(C)C)[C@H](CO[C@H]2CC[C@@H](c3cccc(F)c3)CC2)N1C(=O)OC — 36-fold lower, 0.7 nM
- COC(=O)N1[C@H](C)C[C@H](NS(=O)(=O)N(C)C)[C@@H]1CO[C@@H]1CC[C@H](c2ccccc2)CC1F (stereo partly specified) — 2.4-fold lower, 10.8 nM
- COC(=O)N1[C@H](C)C[C@H](NS(=O)(=O)N(C)C)[C@@H]1CO[C@H]1CC[C@@H](c2cc(F)cc(F)c2)CC1 — 49-fold lower, 0.52 nM
- COC(=O)N1[C@H](C)C[C@H](NS(C)(=O)=O)[C@@H]1CO[C@H]1CC[C@@H](c2cc(F)ccc2F)CC1 — 15-fold lower, 1.67 nM
- COC(=O)N1[C@H](C)C[C@H](NS(C)(=O)=O)[C@@H]1CO[C@H]1CC[C@@H](C(C)C)CC1 — within 1.5-fold, 17.7 nM
- CCc1ccccc1[C@H]1CC[C@@H](OC[C@H]2[C@@H](NS(=O)(=O)N(C)C)C[C@@H](C)N2C(=O)OC)CC1 — 12-fold lower, 2.2 nM
- COCCS(=O)(=O)N[C@H]1C[C@@H](C)N(C(=O)OC)[C@H]1COC1CCC(c2cccc(F)c2)CC1 (stereo partly specified) — 5.5-fold lower, 4.6 nM
- COC(=O)N1[C@H](C)C[C@H](NS(=O)(=O)N(C)CC#N)[C@@H]1CO[C@H]1CC[C@@H](c2cccc(F)c2)CC1 — 42-fold lower, 0.6 nM
- COC(=O)N1[C@H](C)C[C@H](NS(=O)(=O)N(C)C)[C@@H]1CO[C@H]1CC[C@@H](c2ccccc2F)CC1 — 28-fold lower, 0.92 nM
- CC[C@@H]1C[C@H](NS(C)(=O)=O)[C@H](CO[C@H]2CC[C@@H](c3ccccc3)CC2)N1C(=O)OC — 8.5-fold lower, 3 nM
- COC(=O)N1[C@H](C)C[C@H](NS(C)(=O)=O)[C@@H]1CO[C@H]1CC[C@@H](c2ccccc2C(F)(F)F)CC1 — 3.7-fold lower, 6.82 nM
- C[C@@H]1C[C@H](NS(=O)(=O)N(C)C)[C@H](CO[C@H]2CC[C@@H](c3cc(F)ccc3F)CC2)N1C(=O)OCC(F)F — 39-fold lower, 0.66 nM
- COC(=O)N1[C@H](C)C[C@H](NS(=O)(=O)N(C)C)[C@@H]1CO[C@@H]1CC[C@H](c2cccc(F)c2)CC1F (stereo partly specified) — 7-fold lower, 3.63 nM
- COC(=O)N1[C@H](C)C[C@H](NS(C)(=O)=O)[C@@H]1CO[C@H]1CC[C@@H](c2c(F)ccc(F)c2F)CC1 — 24-fold lower, 1.07 nM
- COC(=O)N1[C@H](C)C[C@H](NS(=O)(=O)CC(F)F)[C@@H]1CO[C@H]1CC[C@@H](c2cccc(F)c2)CC1 — 4.9-fold lower, 5.2 nM
- COC(=O)N1[C@H](C)C[C@H](NS(=O)(=O)N(C)C)[C@@H]1CO[C@H]1CC[C@H](c2ccc(C#N)c(C)c2)CC1 — 2-fold lower, 12.5 nM
- COC(=O)N1[C@H](C)C[C@H](NS(=O)(=O)N(C)C)[C@@H]1CO[C@H]1CC[C@@H](c2ccc(C#N)c(C)c2)CC1 — 23-fold lower, 1.1 nM
- COC(=O)N1[C@H](C)C[C@H](NS(=O)(=O)N(C)C)[C@@H]1CO[C@H]1CC[C@@H](c2cc(F)ccc2F)CC1 — 54-fold lower, 0.47 nM
- COC(=O)N1[C@H](C)C[C@H](NS(=O)(=O)CF)[C@@H]1CO[C@H]1CC[C@@H](c2ccccc2)CC1 — 27-fold lower, 0.93 nM
- COC(=O)N1[C@H](C)C[C@H](NS(=O)(=O)CF)[C@@H]1COC1CCC(c2cccc(F)c2)CC1 (stereo partly specified) — 18-fold lower, 1.4 nM
- CC[C@H]1C[C@@H](NS(C)(=O)=O)[C@@H](CO[C@H]2CC[C@@H](c3ccccc3)CC2)N1C(=O)OC — 290-fold higher, 7330 nM
- C=C[C@@H]1C[C@H](NS(C)(=O)=O)[C@H](CO[C@H]2CC[C@@H](c3ccccc3)CC2)N1C(=O)OC (relative stereo) — 2.7-fold lower, 9.4 nM
